Laboratory results from the CheMixHub viscosity set.
Where “and” joins values, the source holds several entries; their conditions need not be identical. Identical values can stand only once. ± gives the uncertainty stated by the source.

| Compound | viscosity (303.15 K, 101 kPa) | viscosity (313.15 K, 101 kPa) | viscosity (313.15 K, 101.3 kPa) | viscosity (323.15 K, 101 kPa) | viscosity (298.15 K, 101 kPa) | viscosity (308.15 K, 101 kPa) | viscosity (318.15 K, 101 kPa) | further results |
| --- | --- | --- | --- | --- | --- | --- | --- | --- |
| CC(=O)c1ccccc1 | 1.533 ± 0.012 mPa·s (2×) and 1.533 ± 0.018 mPa·s and 1.533 ± 0.029 mPa·s | 1.266 ± 0.018 mPa·s and 1.266 ± 0.02 mPa·s and 1.269 ± 0.061 mPa·s | 1.317 ± 0.26 mPa·s | 1.051 ± 0.044 mPa·s |  |  |  | viscosity (303.15 K, 100 kPa): 1.455 ± 0.0088 mPa·s; viscosity (308.15 K, 100 kPa): 1.415 ± 0.1 mPa·s; viscosity (313.15 K, 100 kPa): 1.233 ± 0.0076 mPa·s and 1.269 ± 0.1 mPa·s; viscosity (323.15 K, 100 kPa): 1.061 ± 0.0067 mPa·s; viscosity (323.15 K, 101.3 kPa): 1.285 ± 0.26 mPa·s |
| C1COCO1 | 0.62 ± 0.06 mPa·s | 0.55 ± 0.06 mPa·s | 0.5 ± 0.0048 mPa·s | 0.4183 ± 0.024 mPa·s and 0.51 ± 0.05 mPa·s | 0.587 ± 0.0051 mPa·s | 0.58 ± 0.06 mPa·s and 0.513 ± 0.007 mPa·s and 0.5128 ± 0.013 mPa·s | 0.53 ± 0.05 mPa·s and 0.458 ± 0.007 mPa·s and 0.458 ± 0.012 mPa·s | viscosity (298.15 K, 101.3 kPa): 0.5919 ± 0.0055 mPa·s |
| ClC(Cl)C(Cl)(Cl)Cl | 1.971 ± 0.019 mPa·s |  |  |  | 2.26 ± 0.06 mPa·s |  |  |  |
| CCCOCCC |  |  |  |  |  |  |  | viscosity (298.15 K, 101.33 kPa): 0.4024 ± 0.0044 mPa·s |
| CC[NH2+]CC.O=S(=O)([O-])O | 28.9 ± 0.6 mPa·s | 21.9 ± 0.45 mPa·s |  |  |  | 24.6 ± 0.51 mPa·s |  |  |
| CCC(O)CC | 3.506 ± 0.11 mPa·s | 2.23 ± 0.069 mPa·s |  | 1.528 ± 0.049 mPa·s | 4.81 ± 0.044 mPa·s | 2.773 ± 0.085 mPa·s | 1.895 ± 0.06 mPa·s | viscosity (293.15 K, 101 kPa): 4.646 ± 0.12 mPa·s; viscosity (303.15 K, 101.33 kPa): 3.852 ± 0.051 mPa·s; viscosity (313.15 K, 101.33 kPa): 2.272 ± 0.03 mPa·s; viscosity (323.15 K, 101.33 kPa): 1.543 ± 0.021 mPa·s |
